What is called IC50 is the concentration at which inhibition is half-maximal.

One test has as its target T1, HCN4 (Homo sapiens, UniProt Q9Y3Q4).
T1 sequence (Q9Y3Q4 1-1203): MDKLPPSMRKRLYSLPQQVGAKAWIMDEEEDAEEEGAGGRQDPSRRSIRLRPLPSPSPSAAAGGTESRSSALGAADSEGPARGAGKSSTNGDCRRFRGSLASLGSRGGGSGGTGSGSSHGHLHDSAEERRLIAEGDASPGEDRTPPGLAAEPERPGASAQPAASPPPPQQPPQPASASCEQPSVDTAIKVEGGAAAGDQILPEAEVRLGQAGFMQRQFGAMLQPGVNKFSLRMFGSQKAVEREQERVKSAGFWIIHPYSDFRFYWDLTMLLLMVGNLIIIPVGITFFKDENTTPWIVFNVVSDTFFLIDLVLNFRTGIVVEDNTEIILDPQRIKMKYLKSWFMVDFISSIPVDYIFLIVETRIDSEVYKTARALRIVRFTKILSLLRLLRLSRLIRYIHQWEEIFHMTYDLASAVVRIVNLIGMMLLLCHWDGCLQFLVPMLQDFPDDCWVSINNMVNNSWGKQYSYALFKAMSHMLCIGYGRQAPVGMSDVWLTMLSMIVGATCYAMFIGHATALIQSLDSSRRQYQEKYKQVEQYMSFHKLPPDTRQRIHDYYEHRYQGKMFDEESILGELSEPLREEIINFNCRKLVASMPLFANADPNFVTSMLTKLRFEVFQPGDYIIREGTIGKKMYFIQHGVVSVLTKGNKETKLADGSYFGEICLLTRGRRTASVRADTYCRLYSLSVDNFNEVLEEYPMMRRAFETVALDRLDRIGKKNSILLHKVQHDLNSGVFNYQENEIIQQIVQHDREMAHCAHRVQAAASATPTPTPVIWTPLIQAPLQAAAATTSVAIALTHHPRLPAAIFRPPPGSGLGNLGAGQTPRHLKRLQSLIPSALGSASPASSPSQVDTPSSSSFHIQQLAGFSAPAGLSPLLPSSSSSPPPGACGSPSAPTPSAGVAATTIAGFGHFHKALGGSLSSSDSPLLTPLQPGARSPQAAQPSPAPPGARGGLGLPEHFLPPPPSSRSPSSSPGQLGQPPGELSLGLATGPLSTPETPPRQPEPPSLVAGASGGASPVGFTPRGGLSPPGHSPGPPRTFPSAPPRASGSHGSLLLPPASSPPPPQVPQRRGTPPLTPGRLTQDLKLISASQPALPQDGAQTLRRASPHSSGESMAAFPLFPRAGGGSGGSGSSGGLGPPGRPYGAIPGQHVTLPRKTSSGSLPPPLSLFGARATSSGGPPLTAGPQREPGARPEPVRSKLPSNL
Nature of the test: HCN4 assay using PatchXpress 7000A (Example 50A). In kind it is cell-based. The conditions noted are these: PatchXpress protocol (PX). As for the experimental part:
(§1) Solutions for recording HON currents were:
For HCN4, the pulse protocol involved stepping from a holding potential of −30 mV to −130 mV (see FIG. 1B) for 4 seconds to evoke the current.
(§2) The peak inward current measured at the end of the pulse to −110 mV (HCN1 and HCN2) or −130 mV (HCN4) was measured and any leak current subtracted to calculate the HCN current. The HCN current amplitude was measured after each control or compound addition and normalized to the control amplitude (Control A).
(§3) All experiments were performed at room temperature (approximately 22° C.).
(§4) Each test compound concentration was applied to the cell for seven (7) minutes, at which point the next cumulative concentration was applied. 3 mM CsCl was applied to each cell for 2 minutes at the end of each experiment (Control B) to determine 100% inhibition level of the HCN current.

A further test has as its target T2, HCN2 (Homo sapiens, UniProt Q9UL51).
T2 sequence (Q9UL51 1-889): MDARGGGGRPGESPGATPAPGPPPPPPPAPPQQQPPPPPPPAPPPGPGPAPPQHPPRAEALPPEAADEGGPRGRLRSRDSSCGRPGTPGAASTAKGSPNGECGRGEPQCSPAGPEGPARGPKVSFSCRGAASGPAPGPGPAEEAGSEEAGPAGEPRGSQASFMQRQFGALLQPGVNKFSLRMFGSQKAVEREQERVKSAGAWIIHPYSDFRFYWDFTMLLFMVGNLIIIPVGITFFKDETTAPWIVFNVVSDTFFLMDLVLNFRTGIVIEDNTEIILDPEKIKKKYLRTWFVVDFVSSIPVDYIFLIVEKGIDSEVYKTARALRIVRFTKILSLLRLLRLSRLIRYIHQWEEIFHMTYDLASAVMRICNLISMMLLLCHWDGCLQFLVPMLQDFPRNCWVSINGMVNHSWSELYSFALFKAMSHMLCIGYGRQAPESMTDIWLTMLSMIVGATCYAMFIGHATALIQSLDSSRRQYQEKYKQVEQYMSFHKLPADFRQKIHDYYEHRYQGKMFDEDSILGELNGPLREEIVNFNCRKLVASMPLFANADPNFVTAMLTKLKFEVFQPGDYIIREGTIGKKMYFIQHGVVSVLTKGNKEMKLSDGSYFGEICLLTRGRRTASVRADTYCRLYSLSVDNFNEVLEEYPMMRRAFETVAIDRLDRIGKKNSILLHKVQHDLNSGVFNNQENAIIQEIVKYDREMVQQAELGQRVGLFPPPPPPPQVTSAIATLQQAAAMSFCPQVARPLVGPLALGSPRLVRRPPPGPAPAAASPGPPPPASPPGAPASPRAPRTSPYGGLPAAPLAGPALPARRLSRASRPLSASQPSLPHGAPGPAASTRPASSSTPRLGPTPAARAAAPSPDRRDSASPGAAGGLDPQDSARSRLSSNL
The experiment in a line: HCN2 assay using PatchXpress 7000A (Example 50A). The conditions noted are these: PatchXpress protocol (PX). In kind it is cell-based.
From the text: as §1
For HCN1 and HCN2, the pulse protocol involved stepping from a holding potential of −30 mV to −110 mV (see FIG. 1A) for 2 seconds to evoke the current. The membrane voltage was then stepped back to −30 mV for a further 8 seconds. This sequence was evoked repeatedly every 10 seconds throughout the experiment, starting prior to drug (Control A) and during cumulative additions of 5 increasing compound concentrations, then finally a 100% inhibiting concentration of cesium chloride (CsCl, 3 mM).
as §2, §3, §4

Where a name gives a salt, the structure may show the parent alone.

With `N[C@@H](Cc1ccccn1)c1ccccc1-n1ncc2cc(Br)ccc21` [Example 1, (S)-1-[2-(5-Bromo-1H-indazol-1-yl)phenyl]-2-(pyridine-2-yl)ethane-1-amine hydrochloride], the concentration for half-maximal inhibition (IC50) on HCN4 was 3400 nM; against HCN2, 900 nM.

Consider `Cc1nc(C[C@H](N)c2ncccc2-n2ncc3ccccc32)ccc1F` [Example 20, (S)-1-[3-(1H-indazole-1-yl)pyridine-2-yl]-2-(5-fluoro-6-methyl-pyridine-2-yl)ethan-1-amine hydrochloride], for which the IC50 at HCN4 turned out to be 13000 nM; at HCN2, 900 nM.

Turning to `N[C@@H](Cc1cccc(OCCO)n1)c1ncccc1-n1ncc2ccccc21` [Example 13, (S)-2-[(6-{2-[3-(1H-Indazol-1-yl)pyridine-2-yl]-2-aminoethyl}-pyridine-2-yl)oxy]-ethan-1-ol hydro-chloride], the IC50 at HCN2 is above 10000 nM. With `N#Cc1ccc2c(cnn2-c2ccccc2[C@@H](N)Cc2ccccn2)c1` [Example 3, (S)-1-{2-[1-Amino-2-(pyridine-2-yl)ethyl]-phenyl}-1H-indazole-5-carbonitrile hydro-chloride], the half-maximal inhibitory concentration (IC50) against HCN4 is above 30000 nM; against HCN2, 3500 nM. Turning to `CN(C)C(=O)c1ccc(F)c(C[C@H](N)c2ncccc2-n2ncc3ccccc32)n1` [Example 29, (S)-6-{2-[3-(1H-ind-azol-1-yl)pyridine-2-yl]-2-aminoethyl}-5-fluoro-N,N-dimethylpyridine-2-carboxamide hydro-chloride], at HCN2, 2600 nM corresponded to half-maximal inhibition (IC50). That is a single-digit micromolar value. `CCc1ccc(F)c(C[C@H](N)c2ncccc2-n2ncc3ccccc32)n1` [Example 25, (S)-1-[3-(1H-indazole-1-yl)pyridine-2-yl]-2-(3-fluoro-6-ethylpyr-idine-2-yl)ethan-1-amine hydrochloride]: the IC50 was 1600 nM against HCN4 and 340 nM against HCN2. For the compound `Cc1cccnc1C[C@H](N)c1ncccc1-n1ncc2ccccc21` [Example 16, (S)-1-[3-(1H-indazole-1-yl)pyridine-2-yl]-2-(3-methylpyridine-2-yl)ethan-1-amine hydrochloride], the IC50 at HCN4 was found to be 2100 nM; on HCN2 it was 130 nM.

`NC(=O)c1ccc(F)c(C[C@H](N)c2ncccc2-n2ncc3ccccc32)n1` [Example 19, (S)-6-{2-[3-(1H-ind-azol-1-yl)pyridine-2-yl]-2-aminoethyl}-5-fluoropyridine-2-carboxamide hydro-chloride]: the midpoint of inhibition on HCN2, the IC50, lay at 6900 nM. On to `Cc1cccc(C[C@H](N)c2ncccc2-n2ncc3ccccc32)n1` [Example 5, (S)-1-[3-(1H-indazole-1-yl)pyridine-2-yl]-2-(6-methylpyridine-2-yl)ethan-1-amine hydrochloride], for which the concentration for half-maximal inhibition (IC50) against HCN4 was above 30000 nM; against HCN2, 1900 nM. Take `CN(C)C(=O)c1cccc(C[C@H](N)c2ncccc2-n2ncc3ccccc32)n1` [Example 8, (S)-6-{2-[3-(1H-ind-azol-1-yl)pyridine-2-yl]-2-aminoethyl}-N,N-dimethylpyridine-2-carboxamide hydro-chloride]: the IC50 at HCN4 was above 30000 nM; against HCN2, 28100 nM. For `N[C@@H](Cc1ncccc1F)c1ncccc1-n1ncc2cc(F)ccc21` [Example 28, (S)-1-[3-(5-Fluoro-1H-indazole-1-yl)pyridine-2-yl]-2-(3-fluoropyr- -idine-2-yl)ethan-1-amine hydrochloride], the IC50 was above 30000 nM against HCN4 and 1000 nM against HCN2. Consider `N[C@@H](Cc1cccc(-c2cn[nH]c2)n1)c1ncccc1-n1ncc2ccccc21` [Example 12, (S)-1-[3-(1H-indazole-1-yl)pyridine-2-yl]-2-[6-(1H-pyrazol-4-yl)-pyridine-2-yl)ethan-1-amine hydrochloride], for which the half-maximal inhibitory concentration (IC50) on HCN2 was above 10000 nM.

For `N#Cc1nc(C[C@H](N)c2ncccc2-n2ncc3ccccc32)ccc1F` [Example 22, (S)-6-{2-[3-(1H-ind-azol-1-yl)pyridine-2-yl]-2-aminoethyl}-3-fluoropyridine-2-carbonitrile hydro-chloride], the values for the IC50 against HCN4 and against HCN2 were 13400 nM and 320 nM, respectively. Take `N#Cc1ccc(F)c(C[C@H](N)c2ncccc2-n2ncc3ccccc32)n1` [Example 23, (S)-6-{2-[3-(1H-ind-azol-1-yl)pyridine-2-yl]-2-aminoethyl}-5-fluoropyridine-2-carbonitrile formate]: the 50% inhibitory concentration (IC50) on HCN4 worked out at 7500 nM; against HCN2, 180 nM.

Turning to `Cc1cc(F)cnc1C[C@H](N)c1ncccc1-n1ncc2ccccc21` [Example 26, (S)-1-[3-(1H-indazole-1-yl)pyridine-2-yl]-2-(5-fluoro-3-methyl-pyridine-2-yl)ethan-1-amine hydrochloride], the IC50 at HCN4 was found to be 500 nM; on HCN2, 15 nM. In turn, `CS(=O)(=O)c1cccc(C[C@H](N)c2ncccc2-n2ncc3ccccc32)n1` [Example 49, (S)-1-[3-(1H-indazole-1-yl)pyridine-2-yl]-2-(6-methylsulfonyl-pyridine-2-yl)ethan-1-amine hydrochloride] registered an IC50 on HCN2 of around 10000 nM. At HCN2, `N[C@@H](Cc1cccc(CCO)n1)c1ncccc1-n1ncc2ccccc21` [Example 14, (S)-2-(6-{2-[3-(1H-Indazol-1-yl)pyridine-2-yl]-2-aminoethyl}-pyridine-2-yl)ethan-1-ol hydrochloride] had an IC50 of 3700 nM. In turn, `NC(=O)c1nc(C[C@H](N)c2ncccc2-n2ncc3ccccc32)ccc1F` [Example 27, (S)-6-{2-[3-(1H-ind-azol-1-yl)pyridine-2-yl]-2-aminoethyl}-3-fluoropyridine-2-carboxamide hydro-chloride] returned a 50% inhibitory concentration (IC50) on HCN2 above 10000 nM. Still for that read-out and setting: the same measure for `Cc1ccc(F)c(C[C@H](N)c2ncccc2-n2ncc3ccccc32)n1` [Example 11, (S)-1-[3-(1H-indazole-1-yl)pyridine-2-yl]-2-(3-fluoro-6-methyl-pyridine-2-yl)ethan-1-amine hydrochloride]: 160 nM.

Consider `N[C@@H](Cc1nc(CCO)ccc1F)c1ncccc1-n1ncc2ccccc21` [Example 24, (S)-2-(6-{2-[3-(1H-Indazol-1-yl)pyridine-2-yl]-2-aminoethyl}-5-fluoropyridine-2-yl)-ethan-1-ol hydrochloride], for which, at HCN4, half-maximal inhibition (IC50) was put at 19200 nM.

The values are drawn from patent US20240174639A1, “PYRIDINE DERIVATIVES USEFUL AS HCN2 MODULATORS” (King's College London, priority 2021, published 2024).
